According to ChEMBL document CHEMBL1201862, “PubChem BioAssay data set” (2004):
Calls of active or inactive are those of the source.

Tests used:
[1] = biological target: T1, Alkaline phosphatase, tissue-nonspecific isozyme (Homo sapiens, UniProt P05186); assay: human TNAP enzyme inhibitors, SAR follow-up, biochemical, luminescent, dose response (AID 1056)
T1 sequence (P05186 whole entry): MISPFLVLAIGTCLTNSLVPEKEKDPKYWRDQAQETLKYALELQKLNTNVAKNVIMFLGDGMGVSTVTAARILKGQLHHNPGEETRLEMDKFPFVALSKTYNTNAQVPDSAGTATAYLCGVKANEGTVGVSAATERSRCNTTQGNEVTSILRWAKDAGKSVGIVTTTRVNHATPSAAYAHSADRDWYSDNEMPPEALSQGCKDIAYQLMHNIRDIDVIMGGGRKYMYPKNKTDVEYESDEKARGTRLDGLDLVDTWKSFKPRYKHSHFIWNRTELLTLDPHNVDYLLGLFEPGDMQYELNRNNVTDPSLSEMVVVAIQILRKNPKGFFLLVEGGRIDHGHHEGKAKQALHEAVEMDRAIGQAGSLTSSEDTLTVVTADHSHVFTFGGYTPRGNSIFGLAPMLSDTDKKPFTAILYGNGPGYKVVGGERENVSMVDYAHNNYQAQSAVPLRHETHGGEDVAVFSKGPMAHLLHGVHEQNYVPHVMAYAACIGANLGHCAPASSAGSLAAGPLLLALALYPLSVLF

[2] = biological target: Glyceraldehyde-3-phosphate dehydrogenase (Homo sapiens, UniProt P04406)
Glyceraldehyde-3-phosphate dehydrogenase, sequence (P04406 whole entry): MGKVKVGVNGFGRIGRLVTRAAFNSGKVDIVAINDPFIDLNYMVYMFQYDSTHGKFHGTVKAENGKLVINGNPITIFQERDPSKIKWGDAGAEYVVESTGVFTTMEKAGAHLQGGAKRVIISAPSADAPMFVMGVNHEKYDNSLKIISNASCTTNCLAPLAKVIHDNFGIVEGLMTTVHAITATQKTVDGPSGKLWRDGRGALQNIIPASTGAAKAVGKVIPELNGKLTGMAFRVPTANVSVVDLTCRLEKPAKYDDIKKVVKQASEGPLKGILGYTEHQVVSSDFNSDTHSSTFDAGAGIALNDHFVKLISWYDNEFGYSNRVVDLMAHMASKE

Genome polyprotein = Genome polyprotein (dengue virus type 2, UniProt P29990); assay: Dengue-2 NS5 methyltransferase inhibitors, primary screen, biochemical, confirmation dose response (AID 588689); assay type: functional
Genome polyprotein, sequence (P29990 2492-3391 limits assumed): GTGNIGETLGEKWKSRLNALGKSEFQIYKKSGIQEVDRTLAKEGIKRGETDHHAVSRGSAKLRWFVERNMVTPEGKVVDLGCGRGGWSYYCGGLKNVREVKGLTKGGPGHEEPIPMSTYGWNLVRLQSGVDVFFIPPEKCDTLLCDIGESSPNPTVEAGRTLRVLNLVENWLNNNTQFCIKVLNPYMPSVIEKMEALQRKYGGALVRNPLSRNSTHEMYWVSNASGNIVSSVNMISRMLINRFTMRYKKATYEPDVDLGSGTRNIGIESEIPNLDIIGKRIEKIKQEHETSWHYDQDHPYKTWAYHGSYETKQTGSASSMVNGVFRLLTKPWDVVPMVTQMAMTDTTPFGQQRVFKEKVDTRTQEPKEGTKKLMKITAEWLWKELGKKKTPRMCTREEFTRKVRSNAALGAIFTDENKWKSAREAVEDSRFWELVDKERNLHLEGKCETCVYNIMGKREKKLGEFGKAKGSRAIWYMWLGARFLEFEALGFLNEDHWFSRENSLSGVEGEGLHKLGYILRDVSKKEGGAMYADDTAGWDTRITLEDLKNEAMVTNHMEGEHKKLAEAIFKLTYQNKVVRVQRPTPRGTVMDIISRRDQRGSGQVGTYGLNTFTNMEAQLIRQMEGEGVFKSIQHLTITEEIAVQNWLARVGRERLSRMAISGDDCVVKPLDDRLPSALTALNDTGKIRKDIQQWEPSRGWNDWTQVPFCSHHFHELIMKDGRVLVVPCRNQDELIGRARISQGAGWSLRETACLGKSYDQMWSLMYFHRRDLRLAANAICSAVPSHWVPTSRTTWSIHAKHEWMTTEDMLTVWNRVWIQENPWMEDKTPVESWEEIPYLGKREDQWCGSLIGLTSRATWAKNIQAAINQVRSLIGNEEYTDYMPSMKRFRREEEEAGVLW

[3] = biological target: Lysine-specific demethylase 4C (Homo sapiens, UniProt Q9H3R0); assay: GASC-1 (JMJD2C) histone demethylase inhibitors, dose response, biochemical, DELFIA europium, cherry-picked samples (AID 488835); assay type: functional
Lysine-specific demethylase 4C, sequence (Q9H3R0 whole entry): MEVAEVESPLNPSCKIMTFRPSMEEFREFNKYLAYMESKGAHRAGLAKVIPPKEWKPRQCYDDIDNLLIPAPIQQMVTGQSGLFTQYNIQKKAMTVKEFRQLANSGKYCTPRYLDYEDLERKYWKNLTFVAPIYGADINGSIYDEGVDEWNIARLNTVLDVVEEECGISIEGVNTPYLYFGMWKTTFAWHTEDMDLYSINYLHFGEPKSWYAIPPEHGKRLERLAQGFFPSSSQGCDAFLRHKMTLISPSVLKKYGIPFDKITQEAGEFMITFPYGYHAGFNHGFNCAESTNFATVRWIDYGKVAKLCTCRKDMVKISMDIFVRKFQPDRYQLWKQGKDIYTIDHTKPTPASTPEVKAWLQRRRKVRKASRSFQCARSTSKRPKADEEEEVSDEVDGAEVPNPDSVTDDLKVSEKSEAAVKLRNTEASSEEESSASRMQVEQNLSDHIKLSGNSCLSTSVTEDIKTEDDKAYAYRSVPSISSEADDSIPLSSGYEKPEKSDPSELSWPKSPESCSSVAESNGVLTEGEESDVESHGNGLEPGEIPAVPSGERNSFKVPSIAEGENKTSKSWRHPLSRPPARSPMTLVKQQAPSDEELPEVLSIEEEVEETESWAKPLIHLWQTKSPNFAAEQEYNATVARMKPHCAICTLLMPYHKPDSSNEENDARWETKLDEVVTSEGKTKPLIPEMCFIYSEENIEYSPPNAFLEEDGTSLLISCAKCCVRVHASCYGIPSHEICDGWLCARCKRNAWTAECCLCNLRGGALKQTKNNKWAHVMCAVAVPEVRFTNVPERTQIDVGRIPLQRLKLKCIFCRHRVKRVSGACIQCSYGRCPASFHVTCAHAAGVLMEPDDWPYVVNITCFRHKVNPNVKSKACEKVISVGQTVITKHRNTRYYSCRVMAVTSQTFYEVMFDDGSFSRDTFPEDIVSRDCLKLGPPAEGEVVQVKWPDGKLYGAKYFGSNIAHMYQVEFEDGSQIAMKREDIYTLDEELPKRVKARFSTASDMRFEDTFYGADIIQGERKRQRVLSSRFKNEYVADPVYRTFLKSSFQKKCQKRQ

HEK293 [4] = assay: cells; assay type: functional, cell-based; conditions: Homo sapiens
HEK293 [5] = assay: cells; assay type: functional, cell-based; conditions: Homo sapiens; remark: listed apart in the source
[6] = biological target: Nucleotide-binding oligomerization domain-containing protein 2 (Homo sapiens, UniProt Q9HC29); assay: NOD2 signaling inhibitors, cell-based, luminescence, uHTS, HEK293 (AID 1566); assay type: functional
Nucleotide-binding oligomerization domain-containing protein 2, sequence (Q9HC29 whole entry, the tested form may be a part): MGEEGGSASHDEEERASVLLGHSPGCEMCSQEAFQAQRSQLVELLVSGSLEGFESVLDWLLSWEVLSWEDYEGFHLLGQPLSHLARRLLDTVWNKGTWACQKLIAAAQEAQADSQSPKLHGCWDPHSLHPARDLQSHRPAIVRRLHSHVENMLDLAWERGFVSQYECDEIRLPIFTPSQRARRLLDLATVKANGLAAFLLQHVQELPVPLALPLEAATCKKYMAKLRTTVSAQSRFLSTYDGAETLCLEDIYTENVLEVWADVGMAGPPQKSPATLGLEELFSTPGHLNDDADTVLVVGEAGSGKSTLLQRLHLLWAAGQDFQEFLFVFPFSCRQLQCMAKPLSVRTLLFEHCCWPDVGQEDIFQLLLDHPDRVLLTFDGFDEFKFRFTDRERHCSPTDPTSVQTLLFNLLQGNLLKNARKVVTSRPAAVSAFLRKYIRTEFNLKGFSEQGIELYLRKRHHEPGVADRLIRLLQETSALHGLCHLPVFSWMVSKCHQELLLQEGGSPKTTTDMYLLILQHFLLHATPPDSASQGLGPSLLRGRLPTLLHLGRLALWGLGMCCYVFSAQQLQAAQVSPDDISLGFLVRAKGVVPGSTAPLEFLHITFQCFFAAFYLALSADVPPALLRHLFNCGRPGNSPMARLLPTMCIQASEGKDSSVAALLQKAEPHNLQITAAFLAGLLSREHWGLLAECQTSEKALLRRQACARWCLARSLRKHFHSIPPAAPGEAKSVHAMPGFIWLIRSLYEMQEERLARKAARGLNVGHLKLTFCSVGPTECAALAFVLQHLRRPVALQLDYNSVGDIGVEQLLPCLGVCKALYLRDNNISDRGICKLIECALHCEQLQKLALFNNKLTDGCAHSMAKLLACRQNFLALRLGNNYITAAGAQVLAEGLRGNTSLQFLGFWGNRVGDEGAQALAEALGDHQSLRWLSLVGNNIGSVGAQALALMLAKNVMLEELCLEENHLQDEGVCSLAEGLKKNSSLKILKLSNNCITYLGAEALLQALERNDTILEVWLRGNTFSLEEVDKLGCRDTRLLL

Nonstructural protein 1 = Nonstructural protein 1 (Influenza A virus, UniProt Q194T2); assay type: functional, Influenza A virus (A/California/07/2009(H1N1))
Nonstructural protein 1, sequence (Q194T2 whole entry): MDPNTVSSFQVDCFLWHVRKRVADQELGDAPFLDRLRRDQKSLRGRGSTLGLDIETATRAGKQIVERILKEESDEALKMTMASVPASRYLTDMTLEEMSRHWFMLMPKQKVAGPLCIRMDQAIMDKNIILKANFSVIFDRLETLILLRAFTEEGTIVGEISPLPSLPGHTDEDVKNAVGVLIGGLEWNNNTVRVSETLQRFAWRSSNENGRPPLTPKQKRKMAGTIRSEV

HEK293 [7] = assay: NOD1 signaling inhibitors, primary screen, cell-based, luminescence, uHTS (AID 1578); assay type: functional; conditions: Homo sapiens
HEK293 [8] = assay: NOD2 signaling inhibitors in MDP-stimulated cells, cell-based, uHTS, luminescence (AID 2001); assay type: functional; conditions: Homo sapiens
Vero [9] = assay: Vero cell cytotoxicity, cytotoxicity control for flavivirus capping enzyme inhibitors (AID 588742); assay type: functional; conditions: Chlorocebus sabaeus
[10] = biological target: T2, Orexin/Hypocretin receptor type 1 (Homo sapiens, UniProt O43613); assay: (§1) Fluorescence-based cell-based high throughput dose response assay for antagonists of the orexin 1 receptor (OX1R; HCRTR1). [Related pubchem assays (depositor defined):AID434989, AID435008, AID463079, AID485270, AID492963, AID492964, AID492965, AID493232, AID504717, AID504718]; assay type: functional
T2 sequence (O43613 whole entry): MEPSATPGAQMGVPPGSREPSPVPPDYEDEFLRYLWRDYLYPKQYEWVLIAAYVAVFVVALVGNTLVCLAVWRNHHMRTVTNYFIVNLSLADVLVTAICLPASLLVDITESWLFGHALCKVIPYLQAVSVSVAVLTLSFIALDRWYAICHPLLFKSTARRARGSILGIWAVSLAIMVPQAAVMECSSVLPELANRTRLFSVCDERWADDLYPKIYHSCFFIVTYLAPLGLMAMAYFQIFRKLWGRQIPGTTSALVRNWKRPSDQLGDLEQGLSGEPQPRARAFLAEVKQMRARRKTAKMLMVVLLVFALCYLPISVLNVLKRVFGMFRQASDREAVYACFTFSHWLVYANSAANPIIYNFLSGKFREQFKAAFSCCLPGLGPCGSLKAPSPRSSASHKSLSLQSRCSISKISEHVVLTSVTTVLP

[11] = (§2) Counterscreen for antagonists of the orexin 1 receptor (OX1R; HCRTR1): Fluorescence-based cell-based high throughput dose response assay to identify antagonists of the parental CHO cell line. [Related pubchem assays (depositor defined):AID434989, AID435008, AID463079, AID485270, AID492963, AID492964, AID492965, AID493232, AID504699, AID504701]; assay type: functional
[12] = biological target: T2, Orexin/Hypocretin receptor type 1; assay: as §1, with “Homogeneous Time Resolved Fluorescence (HTRF)-based” for “Fluorescence-based”; assay type: functional
CHO-K1 = assay: as §2, with “Homogeneous time resolved fluorescence (HTRF)-based” for “Fluorescence-based”, “cell-based” for “cell-based high throughput”, “CHO-K1” for “CHO”; assay type: functional; conditions: Cricetulus griseus;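 note: potency for inhibition of ATP-stimulated IP1 production as antagonists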
HEK293 [13] = assay: cells; assay type: functional, cell-based; conditions: Homo sapiens; remark: listed apart in the source
Vero [14] = assay: cells; assay type: functional; conditions: Chlorocebus sabaeus
Paired box protein Pax-8 = Paired box protein Pax-8 (Homo sapiens, UniProt Q06710); assay: inhibitors of PAX8-driven TPO luciferase reporter, dose response, RMG-I cells, cherry-pick (AID 687027); assay type: functional, cell-based;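 note: luciferase reporter driven by Pax8 target thyroperoxidase promoter measured by SteadyGlo luminescence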
Paired box protein Pax-8, sequence (Q06710 whole entry): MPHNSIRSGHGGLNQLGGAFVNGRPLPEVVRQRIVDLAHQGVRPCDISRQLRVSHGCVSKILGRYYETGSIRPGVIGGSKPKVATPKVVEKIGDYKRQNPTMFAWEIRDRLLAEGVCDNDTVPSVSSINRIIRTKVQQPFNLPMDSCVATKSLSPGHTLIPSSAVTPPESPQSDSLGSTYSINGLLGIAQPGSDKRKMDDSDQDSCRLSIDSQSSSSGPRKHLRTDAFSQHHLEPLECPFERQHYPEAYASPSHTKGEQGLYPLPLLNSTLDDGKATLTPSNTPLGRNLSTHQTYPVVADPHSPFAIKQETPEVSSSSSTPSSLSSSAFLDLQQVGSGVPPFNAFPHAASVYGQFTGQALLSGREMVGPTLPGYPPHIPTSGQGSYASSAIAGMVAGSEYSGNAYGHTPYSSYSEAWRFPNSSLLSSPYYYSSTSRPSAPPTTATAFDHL

[15] = inhibitors of intracellular T. cruzi replication, confirmation, NIH3T3 host cells, beta-gal luminescence (AID 2044); assay type: functional, cell-based;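 note: intracellular parasites grown in NIH/3T3 mouse fibroblasts as host cells; luminescent beta-galactosidase reporter signal from transgenic T. cruzi replicating inside host cells; inhibitors lower the luminescence signal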
INS1 = assay: beta cell apoptosis inhibitors, cytokine rescue, dose response, luminescence, retest (AID 449756); assay type: functional, cell-based; conditions: Rattus norvegicus;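 note: cell death triggered by IL-1 beta plus TNF-alpha plus IFN-gamma mixture; protective hits raise ATP signal compared with cytokine alone wells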
[16] = cytotoxicity toward NIH3T3 fibroblasts, dose response, counter-screen, cell-based, ATP luminescence, mouse fibroblasts (AID 2010); assay type: functional;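 note: cells exposed to compound for about 90 hours before reading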
Vero [17] = assay: cells; assay type: functional, cell-based; conditions: Chlorocebus sabaeus
[18] = biological target: T3, E3 ubiquitin-protein ligase XIAP (Homo sapiens, UniProt P98170); assay: XIAP antagonists, biochemical, IAP family, fluorescence polarization (AID 1018); assay type: functional
T3 sequence (P98170 whole entry): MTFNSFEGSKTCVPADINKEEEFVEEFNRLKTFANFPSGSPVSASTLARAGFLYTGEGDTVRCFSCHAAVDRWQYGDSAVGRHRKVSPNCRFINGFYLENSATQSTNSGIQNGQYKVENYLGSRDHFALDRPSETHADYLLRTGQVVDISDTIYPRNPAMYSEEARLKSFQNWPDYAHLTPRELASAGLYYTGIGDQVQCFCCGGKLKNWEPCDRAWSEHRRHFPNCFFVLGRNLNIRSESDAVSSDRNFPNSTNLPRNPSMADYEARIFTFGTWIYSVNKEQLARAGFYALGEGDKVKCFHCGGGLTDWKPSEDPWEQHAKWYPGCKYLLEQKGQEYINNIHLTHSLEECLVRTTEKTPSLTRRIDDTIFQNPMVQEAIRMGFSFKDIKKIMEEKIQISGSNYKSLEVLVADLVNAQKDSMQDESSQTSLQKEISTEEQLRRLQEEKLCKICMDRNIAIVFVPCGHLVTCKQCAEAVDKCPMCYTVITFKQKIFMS

[19] = biological target: T3, E3 ubiquitin-protein ligase XIAP; assay: Counter Screen using XIAP-Bir3 for Chemical Antagonists of Bir1/2 domains of IAP-family anti-apoptotic proteins. [Related pubchem assays (depositor defined):AID1018, AID1449, AID1514, AID1638, AID1749, AID1750, AID488957, AID488963]

With CCOc1ccc(-c2cc(C(=O)O)[nH]n2)cc1 the IC50 [1] was 19.8 µM (active) and the IC50 [2] was > 100 µM (not active).

In the case of Cc1cc(C)cc(OCCOc2cccc(C=C3C(=O)NC(=O)NC3=O)c2)c1, the IC50 (Genome polyprotein) is reported as 46.9 µM (active) and the AC50 [3] is reported as > 60 µM (inactive).

In the case of O=C1/C(=C\c2cccc([N+](=O)[O-])c2O)SC(=S)N1Cc1ccccc1, the IC50 (HEK293 [4]) is reported as 18.9 µM (active), the IC50 (HEK293 [5]) is reported as > 20 µM (inactive) and the EC50 [6] is reported as 9.56 µM (active). For the same molecule, the IC50 (Nonstructural protein 1) was 16.4 µM (active), the EC50 (HEK293 [7]) was 5.91 µM (active) and the IC50 (HEK293 [8]) was 4.7 µM (inactive). For the same molecule, the CC50 (Vero [9]) was 22.8 µM (active).

For COc1cc2ccccc2cc1C(=O)Nc1ccc(N2CCOCC2)cc1, the IC50 [10] was > 49.8 µM (inactive), the IC50 [11] was > 49.8 µM (inactive) and the IC50 [12] was 8.59 µM (active). For the same molecule, the IC50 (CHO-K1) was > 66.3 µM (inactive).

With C=C(C(=O)c1ccccc1)C(C(=C)C(=O)c1ccccc1)c1ccc(OC)cc1 the IC50 (HEK293 [4]) was > 20 µM (inactive), the IC50 (HEK293 [13]) was 5.78 µM (active) and the CC50 (Vero [14]) was 11.2 µM (active). The IC50 (HEK293 [5]) was > 20 µM (inactive), the AC50 (Paired box protein Pax-8) was 2.66 µM (active) and the EC50 [6] was > 20 µM (inactive). For the same molecule, the EC50 [15] was 2.88 µM (active), the AC50 (INS1) was 6.58 µM (active) and the EC50 (HEK293 [7]) was > 20 µM (inactive). The EC50 [16] was 10.4 µM (active), the IC50 (HEK293 [8]) was 5.4 µM (inactive) and the IC50 (Vero [17]) was > 25 µM (active).

With COc1cc(NC(=O)C2CCCN2S(=O)(=O)c2cccc3cccnc23)cc(OC)c1OC (centres undefined) the IC50 [18] was > 100 µM (not active) and the IC50 [19] was > 100 µM (inactive).
